Assay results taken from patent publication US10927086B2, “Substituted sulfoximine compounds as indoleamine 2,3-dioxygenase (IDO) inhibitors” (Merck Sharp & Dohme Corp., priority 2017, dated 2021).

How the values were obtained:
IDO1 [1] = molecular target: T1, IDO1 (Homo sapiens (Human), UniProt P14902); assay: IDO1 Enzyme Assay; assay type: biochemical; settings: HIS-tagged recombinant IDO1, fluorescence readout
Method: (§1) Compounds to be tested were serially diluted in ten 3-fold steps in DMSO starting from 10 mM DMSO stocks. Compound dilutions or DMSO alone were then dispensed from the dilution plate into a Greiner black 384-well assay plate (catalog #781086) using an Echo 555 acoustic liquid handler (Labcyte).
HIS-tagged IDO1 protein was recombinantly expressed in Escherichia coli using ZYP5052 autoinduction media supplemented with 500 μM delta aminolevulinic acid for 48 h at 16° C. IDO1 protein was purified using Ni^2+-affinity resin and size exclusion chromatography. Purified protein was then diluted in assay buffer (50 mM Tris pH 7.0, 1% glycerol, 20 μM methylene blue, 0.05% Tween-20, 20 mM sodium ascorbate, 100 units/mL catalase to obtain a final IDO1 concentration of 40 nM. IDO1 solution […] or buffer alone ([…]) were dispensed to wells of the assay plate using a BioRAPTR liquid dispenser (Beckman Coulter). Assay plates containing compound and IDO1 enzyme were incubated at RT for 30 min. Afterwards, 10 μL of 400 μM tryptophan in assay buffer were added to each well of the assay plate using a BioRAPTR liquid dispenser. Plates were incubated at RT for 60 min and reactions were quenched by addition of 10 μL of 0.5 M methyl isonipecotate in dimethyl sulfoxide. Plates were sealed and incubated at 37° C. for 4 h or 50° C. for 2 h. The plates are allowed to cool and then centrifuged for 1 min at 1000×g. The resulting fluoresence was measured in an Envision plate reader (Perkin Elmer) with a 400/25 nm excitation filter and an 510/20 nm emission filter.
Potencies were calculated by linear least squares fit to the four parameter logistic IC50 equation.
Target sequence in this assay (P14902 whole entry, species assumed): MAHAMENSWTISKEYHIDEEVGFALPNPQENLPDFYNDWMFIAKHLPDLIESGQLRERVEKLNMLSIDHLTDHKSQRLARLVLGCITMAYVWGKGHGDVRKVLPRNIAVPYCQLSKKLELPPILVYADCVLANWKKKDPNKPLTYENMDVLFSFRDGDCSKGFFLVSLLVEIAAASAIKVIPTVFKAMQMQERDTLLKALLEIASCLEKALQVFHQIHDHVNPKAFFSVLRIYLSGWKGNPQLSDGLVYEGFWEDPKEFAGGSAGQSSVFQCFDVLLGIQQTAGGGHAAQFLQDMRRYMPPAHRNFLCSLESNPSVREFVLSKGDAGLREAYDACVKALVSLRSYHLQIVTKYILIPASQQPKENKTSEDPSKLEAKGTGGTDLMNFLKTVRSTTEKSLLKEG

IDO1 [2] = molecular target: T1, IDO1; assay: IDO1 Cellular Assay in Hela Cells Stimulated with IFNγ; assay type: cell-based; settings: about 48 hours, read-out: IDO1 HELA Cell Assay, IC50
Method: Hela cells were cultured in complete Hela culture medium (90% EMEM, 10% heat-inactivated fetal bovine serum) and expanded to about 1×10^9 cells. The cells were then collected and frozen down at 10×10^6 cells/vial in 1 mL frozen medium (90% complete Hela culture medium, 10% DMSO)
as §1, with “stocks in Echo low volume plate(s).” for “stocks.”, “plate(s)” for “plate”, “into” for “into a”, “#781086, 50 nL/well)” for “#781086)”, “550” for “555”
Target sequence in this assay (P14902 whole entry): as the sequence (P14902 whole entry, species assumed) above
Frozen Hela cells were thawed and transferred into Hela assay medium (99% complete Hela culture medium, 1% Pen/Strep) with 20 mL medium/vial of cells. The cells were spun down at 250 g in a table top centrifuge for 5 min and suspended in same volume of Hela assay medium. The cells were then counted and adjusted to a density of 2×10^5 cells/ml in Hela assay medium. Sterile L-tryptophan were added to the cells with final concentration of 300 uM L-tryptophan. A small aliquot (2 mL/plate) of Hela cells were set aside and were not treated with IFNγ, to serve as the Max-E control. The rest of Hela cells were added with sterile IFNγ (Cat #285-IF, R & D systems) with a final concentration of 100 ng/mL.
Hela cells with and without IFNγ were dispensed to the respective wells of 384-well assay plates containing the compounds. The plates were incubated for about 48 hours at a 37° C., 5% CO2 incubator. Afterwards, 12 μL of 0.5 M methyl isonipecotate in dimethyl sulfoxide were added into each well and the plates were sealed and incubated at 37° C. without CO2 overnight. The plates were centrifuged for 1 min at 200×g. The resulting fluorescence was measured in a Spectramax plate reader (Molecular Devices) with a 400 nm excitation filter and a 510 nm emission filter.
The fluorescence intensity of each well was corrected for the background observed in wells with non-IFNγ-treated cells and was expressed as a fraction of the intensity observed in wells of IFNγ-treated cells and DMSO only. Potencies were calculated by linear least squares fit to the four parameter logistic IC50 equation.

Compound | IC50 (IDO1 [1]) | IC50 (IDO1 [2])
CON=[S@](C)(=O)CCNc1nonc1/C(=N/O)NC1Cc2ccc(F)cc21 (single isomer, unassigned) [Example 90] | 44.9 nM | 53.5 nM
N=S(=O)(CCNc1nonc1/C(=N\O)N[C@@H]1Cc2ccc(F)cc21)C1CC1 (single isomer, unassigned) [Example 69] | 64.6 nM | 48.5 nM
CS(=N)(=O)CCC(O)CNc1nonc1/C(=N\O)N[C@@H]1Cc2ccc(F)cc21 (single isomer, unassigned) [Example 79] | 77.6 nM | 91 nM
CS(=N)(=O)N1CC(CNc2nonc2/C(=N\O)N[C@@H]2Cc3ccc(F)cc32)C1 (single isomer, unassigned) [Example 70] | 79.7 nM | 41.6 nM
N=S(=O)(CCO)CCNc1nonc1/C(=N/O)N[C@H]1Cc2ccc(F)cc21 (single isomer, unassigned) [Example 8] | 43.5 nM | 30.5 nM
CS(=N)(=O)N1CCC(Nc2nonc2/C(=N/O)N[C@H]2Cc3ccc(F)cc32)C1 (single isomer, unassigned) [Example 46] | 175 nM | 153 nM
CS(=N)(=O)CCCNc1nonc1/C(=N/O)N[C@H]1Cc2ccc(F)cc21 (single isomer, unassigned) [Example 25] | 31.2 nM | 42.7 nM
CN=S(C)(=O)NCCNc1nonc1/C(=N\O)N[C@H]1Cc2ccc(F)cc21 (single isomer, unassigned) [Example 66] | 80.8 nM | 59.6 nM
CS(=N)(=O)NCC(O)CNc1nonc1/C(=N\O)N[C@H]1Cc2ccc(F)cc21 (single isomer, unassigned) [Example 55] | 92.9 nM | 117 nM
CC(O)CS(=N)(=O)CCNc1nonc1/C(=N\O)N[C@@H]1Cc2ccc(F)cc21 (single isomer, unassigned) [Example 86] | 47.4 nM | 40.5 nM
N=S(N)(=O)CCCNc1nonc1/C(=N\O)NC1Cc2ccc(F)cc21 (stereo in doubt) [Example 65, 4-{[3-(S-aminosulfonimidoyl)propyl]amino}-N-[(7S)-4-fluorobicyclo[4.2.0]octa-1,3,5-trien-7-yl]-N′-hydroxy-1,2,5-oxadiazole-3-carboximidamide] | 48.2 nM | 25.7 nM
CS(=N)(=O)CCC(O)CNc1nonc1/C(=N\O)N[C@@H]1Cc2ccc(F)cc21 (single isomer, unassigned) [Example 80] | 94.5 nM | 68.5 nM
CS(=N)(=O)NCC(O)CNc1nonc1/C(=N\O)N[C@H]1Cc2ccc(F)cc21 (single isomer, unassigned) [Example 56] | 107 nM | 162 nM
CS(=N)(=O)CCNC(=O)CNc1nonc1/C(=N/O)N[C@H]1Cc2ccc(F)cc21 (single isomer, unassigned) [Example 13] | 58.2 nM | 95.5 nM
C[S@@](=N)(=O)CCCOc1nonc1/C(=N/O)NC1Cc2ccc(F)cc21 (single isomer, unassigned) [Example 31] | 213 nM | 356 nM
C[S@](=N)(=O)C1CC(Nc2nonc2/C(=N\O)N[C@@H]2Cc3ccc(F)cc32)C1 (single isomer, unassigned) [Example 73] | 63.9 nM | 85.4 nM
CS(=N)(=O)N1CCO[C@@H](CNc2nonc2/C(=N\O)N[C@H]2Cc3ccc(F)cc32)C1 (single isomer, unassigned) [Example 59] | 120 nM | 129 nM

Compound | IC50 (IDO1 [1]) | IC50 (IDO1 [2])
CS(=N)(=O)CCNC(=O)CNc1nonc1/C(=N/O)N[C@H]1Cc2ccc(F)cc21 (single isomer, unassigned) [Example 14] | 63.8 nM | 103 nM
CS(=N)(=O)NCCOc1nonc1/C(=N/O)N[C@H]1Cc2ccc(F)cc21 (single isomer, unassigned) [Example 52] | 175 nM | 148 nM
N=S(=O)(CCNc1nonc1/C(=N\O)N[C@@H]1Cc2ccc(F)cc21)C1CC1 (single isomer, unassigned) [Example 68] | 59.1 nM | 44.6 nM
CS(=N)(=O)CCCCOc1nonc1/C(=N/O)N[C@H]1Cc2ccc(F)cc21 (single isomer, unassigned) [Example 32] | 178 nM | 241 nM
CS(=N)(=O)CCCCNc1nonc1/C(=N/O)N[C@H]1Cc2ccc(F)cc21 (single isomer, unassigned) [Example 38] | 47.2 nM | 26.7 nM
CC(O)CS(=N)(=O)CCNc1nonc1/C(=N\O)N[C@@H]1Cc2ccc(F)cc21 (single isomer, unassigned) [Example 87] | 46.1 nM | 51.9 nM
CS(=N)(=O)N1CCC(Nc2nonc2/C(=N/O)N[C@H]2Cc3ccc(F)cc32)C1 (single isomer, unassigned) [Example 44] | 220 nM | 219 nM
CS(=N)(=O)NCCCCNc1nonc1/C(=N/O)N[C@H]1Cc2ccc(F)cc21 (stereo partly drawn) [Example 53, N-[(7S)-4-fluorobicyclo[4.2.0]octa-1,3,5-trien-7-yl]-N′-hydroxy-4-({4-[(S-methylsulfonimidoyl)amino]butyl}amino)-1,2,5-oxadiazole-3-carboximidamide] | 69.4 nM | 45.1 nM
CS(=N)(=O)N[C@H]1C[C@@H](Oc2nonc2/C(=N\O)N[C@@H]2Cc3ccc(F)cc32)C1 (single isomer, unassigned) [Example 61] | 81.6 nM | 128 nM
CN=S(C)(=O)NCCNc1nonc1/C(=N\O)N[C@H]1Cc2ccc(F)cc21 (single isomer, unassigned) [Example 67] | 63.7 nM | 140 nM
CS(=N)(=O)NCCNc1nonc1/C(=N/O)N[C@H]1Cc2ccc(F)cc21 (stereo partly drawn) [Example 11, N—((S)-4-fluorobicyclo[4.2.0]octa-1(6),2,4-trien-7-yl)-N′-hydroxy-4-((2-(methylsulfonoamidimidamido)ethyl)amino)-1,2,5-oxadiazole-3-carboximidamide] | 38.7 nM | 27.4 nM
CS(=N)(=O)CC(O)CNc1nonc1/C(=N/O)N[C@H]1Cc2ccc(F)cc21 (single isomer, unassigned) [Example 29] | 70.4 nM | 123 nM
CS(=N)(=O)N1CCC(Nc2nonc2/C(=N/O)N[C@H]2Cc3ccc(F)cc32)CC1 (single isomer, unassigned) [Example 18] | 68.3 nM | 69.9 nM
CS(=N)(=O)CCOCCNc1nonc1/C(=N/O)N[C@H]1Cc2ccc(F)cc21 (single isomer, unassigned) [Example 48] | 119 nM | 144 nM
CN=S(C)(=O)CCNC(=O)CNc1nonc1/C(=N/O)N[C@H]1Cc2ccc(F)cc21 (stereo partly drawn) [Example 40, N-[2-(N,S-dimethylsulfonimidoyl)ethyl]-N~2~-(4-{N-[(7S)-4-fluorobicyclo[4.2.0]octa-1,3,5-trien-7-yl]-N′-hydroxycarbamimidoyl}-1,2,5-oxadiazol-3-yl)glycinamide] | 237 nM | 201 nM
CS(=N)(=O)N1CCO[C@@H](CNc2nonc2/C(=N\O)N[C@@H]2Cc3ccc(F)cc32)C1 (single isomer, unassigned) [Example 64] | 83 nM | 200 nM
CON=[S@](C)(=O)CCNc1nonc1/C(=N/O)NC1Cc2ccc(F)cc21 (single isomer, unassigned) [Example 91] | 47.2 nM | 41.8 nM
